Experimental data reported in patent US9303018B2, “Inhibitors of leukotriene production” (Boehringer Ingelheim International GmbH, priority 2013, dated 2016).

Columns and labels:
human LTA4 hydrolase = human LTA4 hydrolase (Homo sapiens (Human), UniProt P09960); test: LTA4H Enzyme assay (peptidase, Arg-AMC cleavage); assay type: biochemical; conditions: LTA4H enzyme 1 nM, Arg-AMC substrate 50 μM, room temperature 1 h, fluorescence
Experimental: The compounds of the invention are assessed for the ability to interact with human LTA4 hydrolase in an enzymatic assay that measures the ability of the enzyme to cleave the peptide bond of arginyl-aminomethylcoumarin (Arg-AMC). LTA4H Enzyme (1 nM final), Arg-AMC substrate (50 μM final), and compound are combined in a reaction buffer (50 mM Tris-HCl (pH 7.5), 100 mM KCl, 0.5% bovine serum albumin) at room temperature for 1 h. The formation of product is assessed by measuring the fluorescence of aminomethylcoumarin product (excitation wavelength 380 nm/emission wavelength 460 nm).

[1] = test system: synthesis of LTB4 in human whole blood; test: LTB4 production inhibition assay in human whole blood (HWB); assay type: cell-based; conditions: heparinized human whole blood, calcimycin 20 μM stimulated, plasma LTB4 by HTRF
Experimental: The compounds of the invention are additionally tested in a human whole blood (HWB) assay to determine their ability to inhibit the synthesis of LTB4 in a cellular system. Compounds are combined with heparinized human whole blood and incubated for 15 minutes at 37° C. Calcimycin (20 μM final, prepared in phosphate-buffered saline, pH 7.4) is then added and the mixture is incubated for another 30 minutes at 37° C. The samples are centrifuged for 5 min at low speed (1500×g) and the plasma layer is removed. Plasma LTB4 concentrations are then measured using an antibody-based homogenous time-resolved fluorescence method (CisBio, Bedford, Mass.).

human LTA4 hydrolase, sequence (P09960 whole entry): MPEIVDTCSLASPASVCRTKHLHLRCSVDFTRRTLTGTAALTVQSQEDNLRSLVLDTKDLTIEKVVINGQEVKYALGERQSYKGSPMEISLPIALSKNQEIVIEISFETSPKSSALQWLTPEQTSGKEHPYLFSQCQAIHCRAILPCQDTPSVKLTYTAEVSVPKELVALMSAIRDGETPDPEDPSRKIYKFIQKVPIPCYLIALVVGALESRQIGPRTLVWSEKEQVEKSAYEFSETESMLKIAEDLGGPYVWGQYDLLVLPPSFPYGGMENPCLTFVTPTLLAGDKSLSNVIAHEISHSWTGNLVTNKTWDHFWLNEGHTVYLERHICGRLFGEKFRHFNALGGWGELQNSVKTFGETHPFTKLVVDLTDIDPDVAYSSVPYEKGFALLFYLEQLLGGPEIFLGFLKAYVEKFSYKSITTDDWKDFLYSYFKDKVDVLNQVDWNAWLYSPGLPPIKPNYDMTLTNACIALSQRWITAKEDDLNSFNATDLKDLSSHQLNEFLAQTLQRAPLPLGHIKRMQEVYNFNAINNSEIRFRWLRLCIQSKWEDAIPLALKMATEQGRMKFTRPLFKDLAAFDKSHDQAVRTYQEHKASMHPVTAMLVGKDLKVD

| SMILES | IC50 (human LTA4 hydrolase) [µM] | IC50 [1] [µM] |
| --- | --- | --- |
| O=C(CO)N1CCN(Cc2cnc3cc(Oc4ccc(-c5ccn[nH]5)cn4)ccc3c2)CC1 [Example 1, 2-Hydroxy-1-(4-{7-[5-(2H-pyrazol-3-yl)-pyridin-2-yloxy]-quinolin-3-ylmethyl}-piperazin-1-yl)-ethanone] | 0.00069 | 0.16 |
| CC(=O)N1CCN(Cc2cnc3cc(Oc4ccc(-c5ccn[nH]5)cn4)ccc3c2)CC1 [Example 2, 1-(4-{7-[5-(2H-Pyrazol-3-yl)-pyridin-2-yloxy]-quinolin-3-ylmethyl}-piperazin-1-yl)-ethanone] | 0.0006 | 0.15 |
| OC1CN(Cc2cnc3cc(Oc4ccc(-c5ccn[nH]5)cn4)ccc3c2)C1 [Example 3, 1-{7-[5-(2H-Pyrazol-3-yl)-pyridin-2-yloxy]-quinolin-3-ylmethyl}-azetidin-3-ol] | 0.004 | 0.43 |
| COCC(=O)N1CCN(Cc2cnc3cc(Oc4ccc(-c5ccn[nH]5)cn4)ccc3c2)CC1 [Example 4, 2-Methoxy-1-(4-{7-[5-(2H-pyrazol-3-yl)-pyridin-2-yloxy]-quinolin-3-ylmethyl}-piperazin-1-yl)-ethanone] | 0.0014 | 0.17 |
| O=C1[C@@H](O)CCN1C1CCN(Cc2cnc3cc(Oc4ccc(-c5ccn[nH]5)cn4)ccc3c2)CC1 [Example 5, (S)-3-Hydroxy-1-(1-{7-[5-(2H-pyrazol-3-yl)-pyridin-2-yloxy]-quinolin-3-ylmethyl}-piperidin-4-yl)-pyrrolidin-2-one] | 0.0026 | 0.37 |
| O=C1OCCN1C1CCN(Cc2cnc3cc(Oc4ccc(-c5ccn[nH]5)cn4)ccc3c2)CC1 [Example 6, 3-(1-{7-[5-(2H-Pyrazol-3-yl)-pyridin-2-yloxy]-quinolin-3-ylmethyl}-piperidin-4-yl)-oxazolidin-2-one] | 0.0019 | 0.27 |
| OC1CCN(Cc2cnc3cc(Oc4ccc(-c5ccn[nH]5)cn4)ccc3c2)CC1 [Example 7, l-{7-[5-(2H-Pyrazol-3-yl)-pyridin-2-yloxy]-quinolin-3-ylmethyl}-piperidin-4-ol] | 0.0037 | 0.5 |
| CC1(O)CN(Cc2cnc3cc(Oc4ccc(-c5ccn[nH]5)cn4)ccc3c2)C1 [Example 8, 3-Methyl-1-{7-[5-(2H-pyrazol-3-yl)-pyridin-2-yloxy]-quinolin-3-ylmethyl}-azetidin-3-ol] | 0.0024 | 0.41 |
| CN(Cc1cnc2cc(Oc3ccc(-c4ccn[nH]4)cn3)ccc2c1)[C@@H]1CCN(C(=O)CO)C1 [Example 9, 2-Hydroxy-1-[(R)-3-(methyl-{7-[5-(2H-pyrazol-3-yl)-pyridin-2-yloxy]-quinolin-3-ylmethyl}-amino)-pyrrolidin-1-yl]-ethanone] | 0.00088 | 0.15 |
| CN(Cc1cnc2cc(Oc3ccc(-c4ccn[nH]4)cn3)ccc2c1)[C@H]1CCN(C(=O)CO)C1 [Example 10, 2-Hydroxy-1-[(S)-3-(methyl-{7-[5-(2H-pyrazol-3-yl)-pyridin-2-yloxy]-quinolin-3-ylmethyl}-amino)-pyrrolidin-1-yl]-ethanone] | 0.0013 | 0.14 |
| CN(C(=O)CO)[C@H]1CCN(Cc2cnc3cc(Oc4ccc(-c5ccn[nH]5)cn4)ccc3c2)C1 [Example 11, 2-Hydroxy-N-methyl-N-((S)-1-{7-[5-(2H-pyrazol-3-yl)-pyridin-2-yloxy]-quinolin-3-ylmethyl}-pyrrolidin-3-yl)-acetamide] | 0.0026 | 0.25 |
| CN(C(=O)CO)[C@@H]1CCN(Cc2cnc3cc(Oc4ccc(-c5ccn[nH]5)cn4)ccc3c2)C1 [Example 12, 2-Hydroxy-N-methyl-N-((R)-1-{7-[5-(2H-pyrazol-3-yl)-pyridin-2-yloxy]-quinolin-3-ylmethyl}-pyrrolidin-3-yl)-acetamide] | 0.0018 | 0.18 |
| O[C@H]1CCN(Cc2cnc3cc(Oc4ccc(-c5ccn[nH]5)cn4)ccc3c2)C1 [Example 13, (S)-1-{7-[5-(2H-Pyrazol-3-yl)-pyridin-2-yloxy]-quinolin-3-ylmethyl)-pyrrolidin-3-ol] | 0.0025 | 0.22 |
| CCC(=O)N1CCN(Cc2cnc3cc(Oc4ccc(-c5ccn[nH]5)cn4)ccc3c2)CC1 [Example 14, 1-(4-{7-[5-(2H-Pyrazol-3-yl)-pyridin-2-yloxy]-quinolin-3-ylmethyl}-piperazin-1-yl)-propan-1-one] | 0.00044 | 0.086 |

Next, values leading:

| IC50 (human LTA4 hydrolase) [µM] | IC50 [1] [µM] | SMILES |
| --- | --- | --- |
| 0.0035 | 0.38 | CN(C(=O)CO)C1CCN(Cc2cnc3cc(Oc4ccc(-c5ccn[nH]5)cn4)ccc3c2)CC1 [Example 15, 2-Hydroxy-N-methyl-N-(1-{7-[5-(2H-pyrazol-3-yl)-pyridin-2-yloxy]-quinolin-3-ylmethyl}-piperidin-4-yl)-acetamide] |
| 0.0011 | 0.11 | CC(=O)N1CC(CN(C)Cc2cnc3cc(Oc4ccc(-c5ccn[nH]5)cn4)ccc3c2)C1 [Example 16, 1-{3-[(Methyl-{7-[5-(2H-pyrazol-3-yl)-pyridin-2-yloxy]-quinolin-3-ylmethyl}-amino)-methyl]-azetidin-1-yl}-ethanone] |
| 0.0017 | 0.23 | O[C@@H]1CCN(Cc2cnc3cc(Oc4ccc(-c5ccn[nH]5)cn4)ccc3c2)C1 [Example 17, (R)-1-{7-[5-(2H-Pyrazol-3-yl)-pyridin-2-yloxy]-quinolin-3-ylmethyl}-pyrrolidin-3-ol] |
| 0.0011 | 0.18 | C[C@H](O)C(=O)N1CCN(Cc2cnc3cc(Oc4ccc(-c5ccn[nH]5)cn4)ccc3c2)CC1 [Example 18] |
| 0.0015 | 0.48 | CN(C)C(=O)C1CCN(Cc2cnc3cc(Oc4ccc(-c5ccn[nH]5)cn4)ccc3c2)CC1 [Example 19, 1-{7-[5-(2H-Pyrazol-3-yl)-pyridin-2-yloxy]-quinolin-3-ylmethyl}-piperidine-4-carboxylic acid dimethylamide] |
| 0.0016 | 0.23 | CC(C)(O)C(=O)N1CCN(Cc2cnc3cc(Oc4ccc(-c5ccn[nH]5)cn4)ccc3c2)CC1 [Example 20, 2-Hydroxy-2-methyl-1-(4-{7-[5-(2H-pyrazol-3-yl)-pyridin-2-yloxy]-quinolin-3-ylmethyl)-piperazin-1-yl)-propan-1-one] |
| 0.0017 | 0.74 | CC(C)(C)C(=O)N1CCN(Cc2cnc3cc(Oc4ccc(-c5ccn[nH]5)cn4)ccc3c2)CC1 [Example 21, 2,2-Dimethyl-1-(4-{7-[5-(2H-pyrazol-3-yl)-pyridin-2-yloxy]-quinolin-3-ylmethyl}-piperazin-1-yl)-propan-1-one] |
| 0.00093 | 0.23 | O=C(C1CC1)N1CCN(Cc2cnc3cc(Oc4ccc(-c5ccn[nH]5)cn4)ccc3c2)CC1 [Example 22, Cyclopropyl-(4-{7-[5-(2H-pyrazol-3-yl)-pyridin-2-yloxy]-quinolin-3-ylmethyl}-piperazin-1-yl)-methanone] |
| 0.00054 | 0.16 | CC(C)C(=O)N1CCN(Cc2cnc3cc(Oc4ccc(-c5ccn[nH]5)cn4)ccc3c2)CC1 [Example 23] |
